Data published in patent US12202823B2 (QUIMATRYX, S.L., priority 2019, dated 2025).
Read-outs that look alike come from different tables or passages of the source.

Columns and labels:
hHDAC6 = hHDAC6 (Homo sapiens (Human), UniProt Q9UBN7); assay: HDAC6 inhibition protocol; conditions: read-out: IC50 (nM) of enzyme activity HDAC6
Protocol: (§1) After enzymatic reactions, reaction was stopped by adding 5 μl of 10 μM solution of a known inhibitor. The fluorescent signal of substrate and product was measured by means of microfluidics mobility assay in a EZ Reader II equipment. The percentage of conversion of substrate into product was calculated by the equipment software based on the area of the peaks.
(§2) The percentage of conversion data were analyzed using the computer software, Graphpad Prism. In the absence of the compound, the conversion (Ct) in each data set was defined as 100% activity. In the absence of HDAC, the conversion (Cb) in each data set was defined as 0% activity. The percent activity in the presence of each compound was calculated according to the following equation: % inhibition=(Ct−C)/(Ct−Cb), where C=the percentage of conversion in the presence of the compound.
(§3) The values of % inhibition versus a series of compound concentrations were then plotted using non-linear regression analysis of Sigmoidal dose-response curve generated with the equation Y=B+(T−B)/1+10((Log EC50−X)×Hill Slope), where Y=percent inhibition, B=minimum percent inhibition, T=maximum percent inhibition, X=logarithm of compound and Hill Slope=slope factor or Hill coefficient. The IC50 value was determined by the concentration causing a half-maximal percent activity.
The buffer assay used in the inhibition hHDAC6 assay is: Hepes 50 mM, KCl 100 mM, Tween 20 0.001%, BSA 0.01%; pH=7.4.

hHDAC1 = hHDAC1 (Homo sapiens (Human), UniProt Q13547); assay: hHDAC1 inhibition protocol; conditions: read-out: IC50 (nM) of enzyme activity HDAC1; selectivity table
Protocol: as §1, §2, §3
The buffer assay used in the inhibition hHDAC1 assay is: Hepes 50 mM, KCl 100 mM, Tween 20 0.001%, BSA 0.01%; pH=7.4.

hHDAC2 = hHDAC2 (Homo sapiens (Human), UniProt Q92769); assay: hHDAC2 inhibition protocol; conditions: read-out: IC50 (nM) of enzyme activity HDAC2; selectivity table
Protocol: as §1, §2, §3
The buffer assay used in the inhibition hHDAC2 assay is: Hepes 50 mM, KCl 100 mM, Tween 20 0.001%, BSA 0.01%; pH=7.4.

hHDAC3 = hHDAC3 (Homo sapiens (Human), UniProt O15379); assay: hHDAC3 inhibition protocol; conditions: read-out: IC50 (nM) of enzyme activity HDAC3; selectivity table
Protocol: as §1, §2, §3
The buffer assay used in the inhibition hHDAC3 assay is: Hepes 50 mM, KCl 100 mM, Tween 20 0.001%, BSA 0.01%; pH=7.4.

hHDAC4 = hHDAC4 (Homo sapiens (Human), UniProt P56524); assay: hHDAC4 inhibition protocol; conditions: read-out: IC50 (nM) of enzyme activity HDAC4; selectivity table
Protocol: as §1, §2, §3
The buffer assay used in the inhibition hHDAC4 assay is: Hepes 50 mM, KCl 100 mM, Tween 20 0.001%, BSA 0.01%; pH=7.4.

hHDAC5 = hHDAC5 (Homo sapiens (Human), UniProt Q9UQL6); assay: hHDAC5 inhibition protocol; conditions: read-out: IC50 (nM) of enzyme activity HDAC5; selectivity table
Protocol: as §1, §2, §3
The buffer assay used in the inhibition hHDAC5 assay is: Hepes 50 mM, KCl 100 mM, Tween 20 0.001%, BSA 0.01%; pH=7.4.

hHDAC7 = hHDAC7 (Homo sapiens (Human), UniProt Q8WUI4); assay: hHDAC7 inhibition protocol; conditions: read-out: IC50 (nM) of enzyme activity HDAC7; selectivity table
Protocol: The fluorescent signal of substrate and product was measured by means of microfluidics mobility assay in a EZ Reader II equipment. The percentage of conversion of substrate into product was calculated by the equipment software based on the area of the peaks.
as §2, §3
The buffer assay used in the inhibition hHDAC7 assay is: Hepes 50 mM, KCl 100 mM, Tween 20 0.001%, BSA 0.01%; pH=7.4.

hHDAC8 = hHDAC8 (Homo sapiens (Human), UniProt Q9BY41); assay: hHDAC8 inhibition protocol; conditions: read-out: IC50 (nM) of enzyme activity HDAC8; selectivity table
Protocol: as §1, §2, §3
The buffer assay used in the inhibition hHDAC8 assay is: Hepes 50 mM, KCl 100 mM, Tween 20 0.001%, BSA 0.01%; pH=7.4.

hHDAC9 = hHDAC9 (Homo sapiens (Human), UniProt Q9UKV0); assay: hHDAC9 inhibition protocol; conditions: read-out: IC50 (nM) of enzyme activity HDAC9; selectivity table
Protocol: as §1, §2, §3
The buffer assay used in the inhibition hHDAC9 assay is: Hepes 50 mM, KCl 100 mM, Tween 20 0.001%, BSA 0.01%; pH=7.4.

hHDAC10 = hHDAC10 (Homo sapiens (Human), UniProt Q969S8); assay: HDAC10 inhibition protocol; conditions: read-out: IC50 (nM) of enzyme activity HDAC10; selectivity table
Protocol: as §1, §2, §3
The buffer assay used in the inhibition hHDAC10 assay is: Hepes 50 mM, KCl 100 mM, Tween 20 0.001%, BSA 0.01%; pH=7.4.

[1] = hHDAC6 1.20 nM, Acetylated Peptide A 2 μM, 1 hour at RT

Sequence of hHDAC4 (P56524 whole entry): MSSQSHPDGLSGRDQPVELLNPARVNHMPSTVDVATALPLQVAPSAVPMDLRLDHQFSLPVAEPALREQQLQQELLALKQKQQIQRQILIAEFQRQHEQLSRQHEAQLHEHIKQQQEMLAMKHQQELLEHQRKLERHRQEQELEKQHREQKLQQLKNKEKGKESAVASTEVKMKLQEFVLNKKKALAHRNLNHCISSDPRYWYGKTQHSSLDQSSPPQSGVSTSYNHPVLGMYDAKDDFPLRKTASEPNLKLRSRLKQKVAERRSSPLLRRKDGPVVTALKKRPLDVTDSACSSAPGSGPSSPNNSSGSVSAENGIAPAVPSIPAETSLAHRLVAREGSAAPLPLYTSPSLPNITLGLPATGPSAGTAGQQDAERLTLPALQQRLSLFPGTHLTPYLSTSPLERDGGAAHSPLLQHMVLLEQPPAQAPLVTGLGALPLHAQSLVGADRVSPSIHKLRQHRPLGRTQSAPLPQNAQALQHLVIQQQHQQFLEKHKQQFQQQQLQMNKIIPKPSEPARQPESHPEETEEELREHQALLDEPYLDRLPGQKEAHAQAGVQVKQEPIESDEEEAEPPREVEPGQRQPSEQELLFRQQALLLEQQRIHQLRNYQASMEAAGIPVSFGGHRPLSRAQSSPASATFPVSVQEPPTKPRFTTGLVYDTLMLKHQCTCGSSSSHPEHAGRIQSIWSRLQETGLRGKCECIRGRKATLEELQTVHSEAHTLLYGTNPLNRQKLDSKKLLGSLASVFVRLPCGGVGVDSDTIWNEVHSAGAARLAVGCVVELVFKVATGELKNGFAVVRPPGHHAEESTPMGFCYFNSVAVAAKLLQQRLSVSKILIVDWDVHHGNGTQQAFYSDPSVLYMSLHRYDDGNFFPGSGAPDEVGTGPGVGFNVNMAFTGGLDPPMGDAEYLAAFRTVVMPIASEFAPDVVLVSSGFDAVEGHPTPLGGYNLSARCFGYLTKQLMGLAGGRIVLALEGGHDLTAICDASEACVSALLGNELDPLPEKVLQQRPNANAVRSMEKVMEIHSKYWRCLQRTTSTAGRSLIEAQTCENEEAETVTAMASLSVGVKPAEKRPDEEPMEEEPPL
Sequence of hHDAC8 (Q9BY41 whole entry): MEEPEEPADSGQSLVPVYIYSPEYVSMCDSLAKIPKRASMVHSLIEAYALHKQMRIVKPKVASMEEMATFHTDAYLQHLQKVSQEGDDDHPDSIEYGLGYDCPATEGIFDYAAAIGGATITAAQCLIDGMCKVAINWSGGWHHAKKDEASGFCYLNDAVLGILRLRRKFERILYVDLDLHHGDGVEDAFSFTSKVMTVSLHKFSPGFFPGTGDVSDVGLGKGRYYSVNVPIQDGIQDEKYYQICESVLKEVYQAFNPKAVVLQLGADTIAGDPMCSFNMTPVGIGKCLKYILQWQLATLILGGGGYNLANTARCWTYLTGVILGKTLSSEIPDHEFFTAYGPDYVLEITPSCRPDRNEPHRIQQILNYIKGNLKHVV
Sequence of hHDAC6 (Q9UBN7 whole entry): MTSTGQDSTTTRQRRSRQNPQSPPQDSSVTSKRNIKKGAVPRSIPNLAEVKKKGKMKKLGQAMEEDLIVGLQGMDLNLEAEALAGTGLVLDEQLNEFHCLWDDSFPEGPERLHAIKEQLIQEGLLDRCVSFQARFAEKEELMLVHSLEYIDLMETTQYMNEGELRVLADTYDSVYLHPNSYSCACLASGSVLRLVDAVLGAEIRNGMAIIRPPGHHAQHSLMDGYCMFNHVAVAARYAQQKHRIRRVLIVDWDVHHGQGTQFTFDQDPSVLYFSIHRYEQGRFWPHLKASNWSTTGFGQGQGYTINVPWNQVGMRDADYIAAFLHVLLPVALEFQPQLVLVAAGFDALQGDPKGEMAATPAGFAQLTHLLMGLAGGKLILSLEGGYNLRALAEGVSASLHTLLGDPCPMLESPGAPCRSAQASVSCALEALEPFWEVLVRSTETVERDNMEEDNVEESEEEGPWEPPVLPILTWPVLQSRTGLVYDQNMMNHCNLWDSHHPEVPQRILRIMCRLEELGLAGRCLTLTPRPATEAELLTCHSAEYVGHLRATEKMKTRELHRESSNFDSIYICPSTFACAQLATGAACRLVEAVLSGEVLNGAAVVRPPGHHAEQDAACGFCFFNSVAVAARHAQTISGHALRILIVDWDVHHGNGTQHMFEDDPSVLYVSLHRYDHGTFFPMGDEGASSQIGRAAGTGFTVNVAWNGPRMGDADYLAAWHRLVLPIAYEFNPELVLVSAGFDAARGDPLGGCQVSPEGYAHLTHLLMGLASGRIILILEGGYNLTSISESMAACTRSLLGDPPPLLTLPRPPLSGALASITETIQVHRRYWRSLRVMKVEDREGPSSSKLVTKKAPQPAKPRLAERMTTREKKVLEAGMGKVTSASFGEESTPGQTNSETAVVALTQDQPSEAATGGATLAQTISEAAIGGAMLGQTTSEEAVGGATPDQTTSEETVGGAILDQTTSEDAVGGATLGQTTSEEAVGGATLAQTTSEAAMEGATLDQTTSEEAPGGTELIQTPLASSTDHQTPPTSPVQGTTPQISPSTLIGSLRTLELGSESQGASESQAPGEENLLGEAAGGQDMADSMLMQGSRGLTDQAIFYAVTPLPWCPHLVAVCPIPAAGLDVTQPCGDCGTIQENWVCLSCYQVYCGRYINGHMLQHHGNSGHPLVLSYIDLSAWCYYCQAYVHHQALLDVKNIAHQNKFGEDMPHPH
Sequence of hHDAC9 (Q9UKV0 whole entry): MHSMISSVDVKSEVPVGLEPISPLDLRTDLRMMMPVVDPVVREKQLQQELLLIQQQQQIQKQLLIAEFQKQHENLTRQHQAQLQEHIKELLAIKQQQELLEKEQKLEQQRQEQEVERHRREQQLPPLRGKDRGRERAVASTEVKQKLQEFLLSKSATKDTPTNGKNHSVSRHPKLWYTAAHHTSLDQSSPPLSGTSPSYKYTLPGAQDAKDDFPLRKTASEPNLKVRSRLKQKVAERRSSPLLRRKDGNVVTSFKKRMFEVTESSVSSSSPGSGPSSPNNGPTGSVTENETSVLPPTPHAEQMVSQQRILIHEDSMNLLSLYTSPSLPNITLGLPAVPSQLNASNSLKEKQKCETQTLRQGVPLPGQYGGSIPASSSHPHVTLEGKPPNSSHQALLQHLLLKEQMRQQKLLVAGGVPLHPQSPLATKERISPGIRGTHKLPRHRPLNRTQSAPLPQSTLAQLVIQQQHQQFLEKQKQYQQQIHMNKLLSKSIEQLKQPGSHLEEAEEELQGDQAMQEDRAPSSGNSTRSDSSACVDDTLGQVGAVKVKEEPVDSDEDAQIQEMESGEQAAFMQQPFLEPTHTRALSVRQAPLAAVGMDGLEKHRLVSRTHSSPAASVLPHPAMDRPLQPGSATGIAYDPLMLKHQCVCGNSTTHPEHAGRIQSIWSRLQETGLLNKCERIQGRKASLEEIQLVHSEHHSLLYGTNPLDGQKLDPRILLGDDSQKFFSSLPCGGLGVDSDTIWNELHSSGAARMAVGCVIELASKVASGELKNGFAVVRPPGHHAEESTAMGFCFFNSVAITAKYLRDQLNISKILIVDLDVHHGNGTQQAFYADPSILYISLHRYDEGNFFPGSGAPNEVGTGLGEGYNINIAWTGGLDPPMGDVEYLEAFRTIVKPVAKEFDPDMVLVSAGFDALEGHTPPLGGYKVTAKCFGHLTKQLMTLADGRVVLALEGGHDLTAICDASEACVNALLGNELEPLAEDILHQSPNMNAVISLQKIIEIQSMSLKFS
Sequence of hHDAC10 (Q969S8 whole entry): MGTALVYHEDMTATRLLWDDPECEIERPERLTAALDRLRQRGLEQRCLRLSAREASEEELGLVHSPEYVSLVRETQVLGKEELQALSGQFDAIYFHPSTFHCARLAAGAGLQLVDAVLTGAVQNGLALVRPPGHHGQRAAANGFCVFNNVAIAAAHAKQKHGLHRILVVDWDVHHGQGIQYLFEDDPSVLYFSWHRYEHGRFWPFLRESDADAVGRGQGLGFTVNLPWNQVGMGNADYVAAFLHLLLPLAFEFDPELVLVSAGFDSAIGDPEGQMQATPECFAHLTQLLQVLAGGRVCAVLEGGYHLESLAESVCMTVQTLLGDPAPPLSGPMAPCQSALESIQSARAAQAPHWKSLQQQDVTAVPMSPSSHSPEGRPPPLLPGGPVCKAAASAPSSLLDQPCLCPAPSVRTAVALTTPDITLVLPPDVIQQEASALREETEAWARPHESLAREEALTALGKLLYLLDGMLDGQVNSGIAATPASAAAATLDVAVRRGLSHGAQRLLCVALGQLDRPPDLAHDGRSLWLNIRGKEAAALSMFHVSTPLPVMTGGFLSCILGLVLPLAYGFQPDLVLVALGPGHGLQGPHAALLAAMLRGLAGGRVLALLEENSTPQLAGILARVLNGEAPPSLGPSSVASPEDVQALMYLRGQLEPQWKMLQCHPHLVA
Sequence of hHDAC1 (Q13547 whole entry): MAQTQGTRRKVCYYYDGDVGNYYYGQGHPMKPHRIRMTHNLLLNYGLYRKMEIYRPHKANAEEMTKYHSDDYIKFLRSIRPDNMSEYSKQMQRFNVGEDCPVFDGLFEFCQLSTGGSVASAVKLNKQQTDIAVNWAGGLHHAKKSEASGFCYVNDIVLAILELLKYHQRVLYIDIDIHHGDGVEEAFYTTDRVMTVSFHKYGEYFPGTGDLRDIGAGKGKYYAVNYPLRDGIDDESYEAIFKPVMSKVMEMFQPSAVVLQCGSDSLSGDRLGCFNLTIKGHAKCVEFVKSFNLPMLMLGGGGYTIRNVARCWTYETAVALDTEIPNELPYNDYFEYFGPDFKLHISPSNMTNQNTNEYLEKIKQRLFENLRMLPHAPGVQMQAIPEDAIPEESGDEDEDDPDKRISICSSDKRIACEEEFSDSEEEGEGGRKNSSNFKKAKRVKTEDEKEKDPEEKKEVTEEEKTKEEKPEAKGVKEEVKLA

IC50 (hHDAC6; [1]) | IC50 (hHDAC6; selectivity table) | IC50 (hHDAC1) | IC50 (hHDAC2) | IC50 (hHDAC3) | IC50 (hHDAC4) | IC50 (hHDAC5) | IC50 (hHDAC7) | IC50 (hHDAC8) | IC50 (hHDAC9) | IC50 (hHDAC10) | Structure (SMILES)
365 nM | 365 nM | > 10000 nM | > 10000 nM | > 10000 nM | > 10000 nM | > 10000 nM | > 10000 nM | > 10000 nM | > 10000 nM | > 10000 nM | FC(F)c1nnc(-c2ccc(Cn3cc4ccccc4n3)cc2)o1 [Example 7, 2-(4-((2H-indazol-2-yl)methyl)phenyl)-5-(difluoromethyl)-1,3,4-oxadiazole]
171 nM | 171 nM | > 10000 nM | > 10000 nM | > 10000 nM | > 10000 nM | > 10000 nM | > 10000 nM | > 10000 nM | > 10000 nM | > 10000 nM | FC(F)c1nnc(-c2ccc(Cn3nnc4ccccc43)cc2)o1 [Example 11, 2-(4-((1H-benzo[d][1,2,3]triazol-1-yl)methyl)phenyl)-5-(difluoromethyl)-1,3,4-oxadiazole]
22.4 nM | 22.4 nM | > 10000 nM | > 10000 nM | > 10000 nM | 2400 nM | > 10000 nM | 9400 nM | > 10000 nM | 6520 nM | > 10000 nM | FC(F)c1nnc(-c2ccc(Cn3cnc4cc(Cl)c(Cl)cc43)nc2)o1 [Example 22, 2-(6-((5,6-dichloro-1H-benzo[d]imidazol-1-yl)methyl)pyridin-3-yl)-5-(difluoromethyl)-1,3,4-oxadiazole]
29.5 nM | 29.5 nM | > 10000 nM | > 10000 nM | > 10000 nM | 8370 nM | > 10000 nM | > 10000 nM | > 10000 nM | 8620 nM | > 10000 nM | FC(F)c1nnc(-c2ccc(Cn3nnc4cc(Cl)c(Cl)cc43)nc2)o1 [Example 24, 2-(6-((5,6-dichloro-1H-benzo[d][1,2,3]triazol-1-yl)methyl)pyridin-3-yl)-5-(difluoromethyl)-1,3,4-oxadiazole]
29.8 nM | 29.8 nM | > 10000 nM | > 10000 nM | > 10000 nM | > 10000 nM | > 10000 nM | > 10000 nM | > 10000 nM | > 10000 nM | > 10000 nM | FC(F)c1nnc(-c2ccc(Cn3nc4cc(Cl)c(Cl)cc4n3)nc2)o1 [Example 25, 2-(6-((5,6-dichloro-2H-benzo[d][1,2,3]triazol-2-yl)methyl)pyridin-3-yl)-5-(difluoromethyl)-1,3,4-oxadiazole]
85.3 nM | 85.3 nM | > 10000 nM | > 10000 nM | > 10000 nM | > 10000 nM | > 10000 nM | > 10000 nM | > 10000 nM | > 10000 nM | > 10000 nM | FC(F)c1nnc(-c2ccc(Cn3cc(-c4ccccc4)nn3)cc2)o1 [Example 27, 2-(difluoromethyl)-5-(4-((4-phenyl-1H-1,2,3-triazol-1-yl)methyl)phenyl)-1,3,4-oxadiazole]
24 nM | 24 nM | > 10000 nM | > 10000 nM | > 10000 nM | > 10000 nM | > 10000 nM | > 10000 nM | > 10000 nM | > 10000 nM | > 10000 nM | Fc1ccccc1-c1cn(Cc2ccc(-c3nnc(C(F)F)o3)cn2)nn1 [Example 48, 2-(difluoromethyl)-5-(6-((4-(2-fluorophenyl)-1H-1,2,3-triazol-1-yl)methyl)pyridin-3-yl)-1,3,4-oxadiazole]
43.5 nM |  |  |  |  |  |  |  |  |  |  | COc1cccc(-c2cn(Cc3ccc(-c4nnc(C(F)F)o4)cn3)nn2)c1 [Example 50]
87.9 nM |  |  |  |  |  |  |  |  |  |  | FC(F)c1nnc(-c2ccc(Cn3nnc(-c4ccccc4)c3Cl)cc2)o1 [Example 51, 2-(4-((5-chloro-4-phenyl-1H-1,2,3-triazol-1-yl)methyl)phenyl)-5-(difluoromethyl)-1,3,4-oxadiazole]
48.4 nM |  |  |  |  |  |  |  |  |  |  | FC(F)c1nnc(-c2ccc(Cn3nnc(-c4ccccc4)c3Cl)nc2)o1 [Example 52, 2-(6-((5-chloro-4-phenyl-1H-1,2,3-triazol-1-yl)methyl)pyridin-3-yl)-5-(difluoromethyl)-1,3,4-oxadiazole]
81.5 nM |  |  |  |  |  |  |  |  |  |  | FC(F)c1nnc(-c2ccc(Cn3nnc(-c4ccccc4Cl)c3Cl)nc2)o1 [Example 53, 2-(6-((5-chloro-4-(2-chlorophenyl)-1H-1,2,3-triazol-1-yl)methyl)pyridin-3-yl)-5-(difluoromethyl)-1,3,4-oxadiazole]
34.1 nM | 34.1 nM | > 10000 nM | > 10000 nM | > 10000 nM | 1490 nM | > 10000 nM | 1400 nM | > 10000 nM | 2610 nM | > 10000 nM | FC(F)c1nnc(-c2ccc(Cn3nnc(-c4cccc(Cl)c4)c3Cl)nc2)o1 [Example 54, 2-(6-((5-chloro-4-(3-chlorophenyl)-1H-1,2,3-triazol-1-yl)methyl)pyridin-3-yl)-5-(difluoromethyl)-1,3,4-oxadiazole]
58.2 nM |  |  |  |  |  |  |  |  |  |  | FC(F)c1nnc(-c2ccc(C(Cl)n3cc(-c4ccccc4)nn3)nc2)o1 (stereo not drawn) [Example 55, 2-(6-(chloro(4-phenyl-1H-1,2,3-triazol-1-yl)methyl)pyridin-3-yl)-5-(difluoromethyl)-1,3,4-oxadiazole]
66.5 nM |  |  |  |  |  |  |  |  |  |  | Fc1cc(F)cc(-c2cn(Cc3ccc(-c4nnc(C(F)F)o4)cn3)nn2)c1 [Example 56, 2-(difluoromethyl)-5-(6-((4-(3,5-difluorophenyl)-1H-1,2,3-triazol-1-yl)methyl)pyridin-3-yl)-1,3,4-oxadiazole]
149 nM |  |  |  |  |  |  |  |  |  |  | Fc1cc(-c2cn(Cc3ccc(-c4nnc(C(F)F)o4)cn3)nn2)cc(F)c1F [Example 57, 2-(difluoromethyl)-5-(6-((4-(3,4,5-trifluorophenyl)-1H-1,2,3-triazol-1-yl)methyl)pyridin-3-yl)-1,3,4-oxadiazole]
121 nM |  |  |  |  |  |  |  |  |  |  | FC(F)c1nnc(-c2ccc(Cn3c(C(F)(F)F)nc4cc(Cl)c(Cl)cc43)nc2)o1 [Example 58, 2-(6-((5,6-dichloro-2-(trifluoromethyl)-1H-benzo[d]imidazol-1-yl)methyl)pyridin-3-yl)-5-(difluoromethyl)-1,3,4-oxadiazole]
85.1 nM |  |  |  |  |  |  |  |  |  |  | Cc1cc2nnn(Cc3ccc(-c4nnc(C(F)F)o4)cn3)c2cc1C [Example 59, 2-(difluoromethyl)-5-(6-((5,6-dimethyl-1H-benzo[d][1,2,3]triazol-1-yl)methyl)pyridin-3-yl)-1,3,4-oxadiazole]
42.3 nM |  |  |  |  |  |  |  |  |  |  | Cc1nc2cc(Cl)c(Cl)cc2n1Cc1ccc(-c2nnc(C(F)F)o2)cn1 [Example 60, 2-(6-((5,6-dichloro-2-methyl-1H-benzo[d]imidazol-1-yl)methyl)pyridin-3-yl)-5-(difluoromethyl)-1,3,4-oxadiazole]
187 nM |  |  |  |  |  |  |  |  |  |  | Cc1cc2ncn(Cc3ccc(-c4nnc(C(F)F)o4)cn3)c2cc1C [Example 61, 2-(difluoromethyl)-5-(6-((5,6-dimethyl-1H-benzo[d]imidazol-1-yl)methyl)pyridin-3-yl)-1,3,4-oxadiazole]
61.8 nM |  |  |  |  |  |  |  |  |  |  | FC(F)c1nnc(-c2ccc(Cn3cnc4ccc(Br)cc43)nc2)o1 [Example 62, 2-(6-((6-bromo-1H-benzo[d]imidazol-1-yl)methyl)pyridin-3-yl)-5-(difluoromethyl)-1,3,4-oxadiazole]
48.3 nM |  |  |  |  |  |  |  |  |  |  | FC(F)c1nnc(-c2ccc(Cn3cnc4cc(Br)ccc43)nc2)o1 [Example 63, 2-(6-((5-bromo-1H-benzo[d]imidazol-1-yl)methyl)pyridin-3-yl)-5-(difluoromethyl)-1,3,4-oxadiazole]
48.7 nM |  |  |  |  |  |  |  |  |  |  | FC(F)c1nnc(-c2ccc(Cn3nnc4cc(Br)ccc43)nc2)o1 [Example 64, 2-(6-((5-bromo-1H-benzo[d][1,2,3]triazol-1-yl)methyl)pyridin-3-yl)-5-(difluoromethyl)-1,3,4-oxadiazole]
40.4 nM |  |  |  |  |  |  |  |  |  |  | FC(F)c1nnc(-c2ccc(Cn3nnc4ccc(Br)cc43)nc2)o1 [Example 65, 2-(6-((6-bromo-1H-benzo[d][1,2,3]triazol-1-yl)methyl)pyridin-3-yl)-5-(difluoromethyl)-1,3,4-oxadiazole]
33.3 nM |  |  |  |  |  |  |  |  |  |  | FC(F)c1nnc(-c2ccc(Cn3nc4ccc(Br)cc4n3)nc2)o1 [Example 66, 2-(6-((5-bromo-2H-benzo[d][1,2,3]triazol-2-yl)methyl)pyridin-3-yl)-5-(difluoromethyl)-1,3,4-oxadiazole]
67.4 nM |  |  |  |  |  |  |  |  |  |  | Fc1ccccc1-c1nnn(Cc2ccc(-c3nnc(C(F)F)o3)cn2)c1Cl [Example 67, 2-(6-((5-chloro-4-(2-fluorophenyl)-1H-1,2,3-triazol-1-yl)methyl)pyridin-3-yl)-5-(difluoromethyl)-1,3,4-oxadiazole]
